Reference: PubChem BioAssay AID2060893 (Molecular Pharmacology Branch, DTP, NCI, 2025)

Tested on: K86415-001-R-J1-PDC complex spheroids, viability
Assay: Anticancer human tumor K86415-001-R-J1-PDC patient-derived lung adenocarcinoma cell line growth inhibition [RAS]
Settings: for IC50: curve of first compound; for viability, T/C: stronger effect = lower value
Description: RAS pathway inhibitors in Combinations in Complex Spheroids
A high-throughput screen of multi-cell type tumor spheroids was designed to identify active combinations of RAS pathway inhibitors and targeted small molecules. Complex spheroids include a stromal component modeled by human endothelial cells (HUVEC) and fibroblasts modeled by human mesenchymal stem cells (MSCs). The concentration ranges selected for each drug and investigational agent were based upon clinically achievable concentrations if the clinical Cmax of the agent was known.
Compounds. The drugs and investigational agents: abemaciclib (NSC768073), cobimetinib (NSC768068), divarasib (GDC6063, NSC841802), docetaxel (NSC628503), GDC-1971 (RLY-1971, NSC841576), gemcitabine (NSC613327), inavolisib (NSC800729), ipatasertib (NSC767898), KB-0742 (NSC834161), MRTX-1133 (NSC836407), osimertinib (NSC779217), RMC-4630 (NSC839698), RMC-6236 (NSC851965), RMC-6291 (NSC852671), Ro-3306 (NSC812927), sapanisertib (NSC764658), SN-38 (NSC673596), staurosporine (NSC755774), SY5609 (NSC837396), and tovorafenib (DAY101, NSC766906), were obtained from the National Cancer Institute (NCI) Developmental Therapeutics Program Chemical Repository. The FDA-approved anticancer drug set is available from the NCI Developmental Therapeutics Program. […] The stock solutions were prepared in dimethyl sulfoxide (DMSO, Sigma-Aldrich, St. Louis, MO, cat. D2650) at 800-fold the tested concentration and stored at -70 degrees C prior to their use. All drugs and investigational agents were tested over a range starting from a high concentration at or near the clinical Cmax and decreasing in half-log increments. If the clinical Cmax for an agent had not been determined, the highest concentration tested was 10 microM.
Cell Culture. All cells were maintained in an incubator at 37 degrees C and 5% CO2 with 95% humidity. The PDC lines were cultured according to standard operating procedures established by the NCI PDMR. All PDCs were thawed and cultured in Matrigel-coated flasks prepared with a working solution of 1X Ham's F-12 nutrient mix, without supplementation (Invitrogen, Waltham, MA, cat. 11765054), 100 U/mL penicillin-streptomycin (Invitrogen, cat. 15140122), and 2.5% Matrigel (Corning Inc., Corning, NY, cat. 354248) for the first three passages. The 362531-283-R-J2-PDC and 782815-120-R-J1-PDC lines were cultured in 6C/Colon 1B media, which includes advanced DMEM/F-12 (Thermo Fisher Scientific, cat. 12634028), 10 mM HEPES (Thermo Fisher Scientific, cat. 15630080), 1X GlutaMAX supplement (Thermo Fisher Scientific, cat. 35050061), 0.1 mg/mL primocin (InvivoGen, San Diego, CA, cat. ant-pm-2), 10% defined fetal bovine serum, heat inactivated (HyClone Laboratories Inc., Logan, UT, cat. SH30070.03HI), 50% L-WRN conditioned media (ATCC, cat. CRL-3276), 1.25 mM N-Acetyl-L-cysteine (Sigma-Aldrich, cat. A9165), 10 mM nicotinamide (Sigma-Aldrich, cat. N0636), 1X B-27 supplement (Thermo Fisher Scientific, cat. 17504044), 1X N-2 supplement (Thermo Fisher Scientific, cat. 17502048), 50 ng/mL human EGF (Thermo Fisher Scientific, cat. PHG0311), and 10 microM Y-27632 dihydrochloride (Tocris Bioscience, cat. 1254). The K12877-001-R-J1-PDC line was cultured in 6I media, which includes all 6C/Colon 1B media plus 10 ng/mL human FGF-10 (PeproTech, cat. 100-26), 1 ng/mL human FGF-2 (PeproTech, cat. 100-18B), 1 µM prostaglandin E2 (Tocris Bioscience, cat. 2296), […] hydrocortisone (Sigma-Aldrich, cat. H4001), and […] bovine insulin (Sigma-Aldrich, cat. I6634). The K86415-001-R-J1-PDC line was cultured in 6D media, which includes all 6C/Colon 1B media components minus the L-WRN conditioned media. The 485176-168-R4-J1-PDC was cultured in PANC media, which includes all 6C/Colon 1B media plus 100 ng/mL human FGF-10 (PeproTech, cat. 100-26), 500 nM SB-431542 (Selleckchem, cat. S1067), and 10 nM gastrin (Tocris Bioscience, cat. 3006). […]

[1] = second compound 0.0316 µM, first compound 0.00316 µM
[2] = second compound 0.0316 µM, first compound 0.01 µM
[3] = second compound 0.0316 µM, first compound 0.0316 µM
[4] = second compound 0.0316 µM, first compound 0.1 µM
[5] = second compound 0.0316 µM, first compound 0.316 µM
[6] = second compound 0.0316 µM, first compound 1 µM
[7] = second compound 0.1 µM, first compound 0.00316 µM
[8] = second compound 0.1 µM, first compound 0.01 µM
[9] = second compound 0.1 µM, first compound 0.0316 µM
[10] = second compound 0.1 µM, first compound 0.1 µM
[11] = second compound 0.1 µM, first compound 0.316 µM
[12] = second compound 0.1 µM, first compound 1 µM
[13] = second compound 0.316 µM, first compound 0.00316 µM
[14] = second compound 0.316 µM, first compound 0.01 µM
[15] = second compound 0.316 µM, first compound 0.0316 µM
[16] = second compound 0.316 µM, first compound 0.1 µM
[17] = second compound 0.316 µM, first compound 0.316 µM
[18] = second compound 0.316 µM, first compound 1 µM
[19] = second compound 1 µM, first compound 0.00316 µM
[20] = second compound 1 µM, first compound 0.01 µM
[21] = second compound 1 µM, first compound 0.0316 µM
[22] = second compound 1 µM, first compound 0.1 µM
[23] = second compound 1 µM, first compound 0.316 µM
[24] = second compound 1 µM, first compound 1 µM
[25] = second compound 3.16 µM, first compound 0.00316 µM
[26] = second compound 3.16 µM, first compound 0.01 µM
[27] = second compound 3.16 µM, first compound 0.0316 µM
[28] = second compound 3.16 µM, first compound 0.1 µM
[29] = second compound 3.16 µM, first compound 0.316 µM
[30] = second compound 3.16 µM, first compound 1 µM
[31] = second compound 10 µM, first compound 0.00316 µM
[32] = second compound 10 µM, first compound 0.01 µM
[33] = second compound 10 µM, first compound 0.0316 µM
[34] = second compound 10 µM, first compound 0.1 µM
[35] = second compound 10 µM, first compound 0.316 µM
[36] = second compound 10 µM, first compound 1 µM
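Note: spheroids exposed to agents for seven days before readout.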

O=C(c1ccc(F)c(F)c1Nc1ccc(I)cc1F)N1CC(O)([C@@H]2CCCCN2)C1 + C#Cc1c(F)ccc2cc(O)cc(-c3ncc4c(N5CC6CCC(C5)N6)nc(OCC56CCCN5CC(F)C6)nc4c3F)c12
IC50 (second compound 0.0316 µM): 64.2 nM
IC50 (second compound 0.1 µM): 56 nM
IC50 (second compound 0.316 µM): 38.2 nM
IC50 (second compound 1 µM): 12.5 nM
IC50 (second compound 3.16 µM): < 3.16 nM
IC50 (second compound 10 µM): < 3.16 nM
viability, T/C [1]: 89%
viability, T/C [2]: 83.5%
viability, T/C [3]: 67.7%
viability, T/C [4]: 38%
viability, T/C [5]: 19.8%
viability, T/C [6]: 8.49%
viability, T/C [7]: 88.1%
viability, T/C [8]: 79.9%
viability, T/C [9]: 61.3%
viability, T/C [10]: 37%
viability, T/C [11]: 22.2%
viability, T/C [12]: 8.46%
viability, T/C [13]: 74.5%
viability, T/C [14]: 74.5%
viability, T/C [15]: 52.2%
viability, T/C [16]: 29.2%
viability, T/C [17]: 17.2%
viability, T/C [18]: 8.24%
viability, T/C [19]: 61.2%
viability, T/C [20]: 54.9%
viability, T/C [21]: 35.9%
viability, T/C [22]: 22%
viability, T/C [23]: 12.4%
viability, T/C [24]: 5.88%
viability, T/C [25]: 28.6%
viability, T/C [26]: 32%
viability, T/C [27]: 20.6%
viability, T/C [28]: 13.8%
viability, T/C [29]: 8.69%
viability, T/C [30]: 3.9%
viability, T/C [31]: 14.4%
viability, T/C [32]: 13.1%
viability, T/C [33]: 9.68%
viability, T/C [34]: 7.57%
viability, T/C [35]: 4.87%
viability, T/C [36]: 3%

C=CC(=O)Nc1cc(Nc2nccc(-c3cn(C)c4ccccc34)n2)c(OC)cc1N(C)CCN(C)C + C#Cc1c(F)ccc2cc(O)cc(-c3ncc4c(N5CC6CCC(C5)N6)nc(OCC56CCCN5CC(F)C6)nc4c3F)c12
IC50 (second compound 0.0316 µM): 493 nM
IC50 (second compound 0.1 µM): 287 nM
IC50 (second compound 0.316 µM): 191 nM
IC50 (second compound 1 µM): 42.3 nM
IC50 (second compound 3.16 µM): < 3.16 nM
IC50 (second compound 10 µM): < 3.16 nM
viability, T/C [1]: 95.1%
viability, T/C [2]: 99.4%
viability, T/C [3]: 88.3%
viability, T/C [4]: 73.1%
viability, T/C [5]: 58.4%
viability, T/C [6]: 38.9%
viability, T/C [7]: 84.5%
viability, T/C [8]: 99.3%
viability, T/C [9]: 88.1%
viability, T/C [10]: 67.7%
viability, T/C [11]: 50.8%
viability, T/C [12]: 31.2%
viability, T/C [13]: 87.8%
viability, T/C [14]: 92.3%
viability, T/C [15]: 72.3%
viability, T/C [16]: 56.1%
viability, T/C [17]: 46.1%
viability, T/C [18]: 21.8%
viability, T/C [19]: 61.1%
viability, T/C [20]: 59.2%
viability, T/C [21]: 52.9%
viability, T/C [22]: 40.8%
viability, T/C [23]: 24.2%
viability, T/C [24]: 14.4%
viability, T/C [25]: 32.3%
viability, T/C [26]: 33.8%
viability, T/C [27]: 27.2%
viability, T/C [28]: 20.4%
viability, T/C [29]: 13.6%
viability, T/C [30]: 9.53%
viability, T/C [31]: 30.3%
viability, T/C [32]: 16.9%
viability, T/C [33]: 13.9%
viability, T/C [34]: 10.1%
viability, T/C [35]: 10.4%
viability, T/C [36]: 7%
